Reference: patent publication US20260374818A1, “CATIONIC PEPTIDES WITH BROAD SPECTRUM ACTIVITY” (priority 2023, published 2026)
≈ marks a conversion by molar mass, not a printed value. Like-named read-outs stand apart in the source and are kept apart here. Where a SMILES comes first, the peptide text is derived from it. [ ]: non-standard residue; d: D form.

What was measured:
[1] = tested on: P. aeruginosa PAO1 biofilms; test: Checkerboard biofilm synergy of AB103-D with antimicrobials, PAO1; format: cell-based, Pseudomonas aeruginosa; conditions: for FIC against biofilms: antibiotic used with AB103-D, PAO1, BM2, ≤0.5 synergy; for Fold Decrease in concentration of AB103-D: in combination of antibiotic with AB103-D; for Fold Decrease in concentration of AB103-D / Fold Decrease in concentration of Antibiotic: PAO1; for Fold Decrease in concentration of Antibiotic: in combination with AB103-D
[2] = tested on: MRSA USA 300 LAC biofilms; test: Checkerboard biofilm synergy of AB103-D with antimicrobials, MRSA; format: cell-based, methicillin resistant Staphylococcus aureus; conditions: for FIC: antibiotic used with AB103-D, MRSA USA 300 LAC, ≤0.5 synergy; for Fold decrease AB103-D: in combination of antibiotic with AB103-D; for Fold decrease Antibiotic: in combination with AB103-D
[3] = tested on: P. aeruginosa PAO1 planktonic cells; test: MIC of antibiotics against planktonic cells, PAO1; format: cell-based, Pseudomonas aeruginosa; conditions: for MIC: Pseudomonas aeruginosa
[4] = tested on: MRSA USA 300 LAC planktonic cells; test: MIC of antibiotics against planktonic cells, MRSA; format: cell-based, methicillin resistant Staphylococcus aureus; conditions: for MIC: Staphylococcus aureus
MRSA USA300 biofilms = test: Biofilm inhibition by >95% pure peptides (crystal violet), MRSA; format: cell-based, methicillin resistant Staphylococcus aureus; conditions: MRSA USA300 biofilms, >95% pure peptides, 10% TSB + 0.1% glucose
P. aeruginosa PAO1 [5] = test: MIC (broth microdilution) of peptides, P. aeruginosa; format: cell-based, Pseudomonas aeruginosa; conditions: mode of three biological replicates
Method: (§1) Minimal inhibitory concentration (MIC) against planktonic bacteria: The MIC of the synthetic peptides was determined in Mueller-Hinton broth (MHB) using the broth microdilution method described previously [Wiegand, I., Hilpert, K., & Hancock, R. E. (2008). Agar and broth dilution methods to determine the minimal inhibitory concentration (MIC) of antimicrobial substances. Nature Protocols, 3(2), 163-175]. Briefly, 10 μl of a 10× concentrated peptide solution was placed in the bottom of a well in a 96-well polypropylene round bottom plate (Corning Inc.). A bacterial suspension of ~5×10^5 CFU/ml was prepared from an overnight culture and 90 μl of this was added to each well. […] Bacteria tested included P. aeruginosa PAO1, MRSA USA300 LAC, Staphylococcus haemolyticus, Staphylococcus epidermidis, Klebsiella pneumoniae and Streptococcus salivarius.
(§2) Finally, the AB103-D derivatives that were the least aggregation prone and which produced the lowest toxic effects in vivo were evaluated for their direct antibacterial activity towards several pathogens of clinical relevance using a standard minimum inhibitory concentration (MIC) assay [Wiegand, I., Hilpert, K., & Hancock, R. E. (2008). Agar and broth dilution methods to determine the minimal inhibitory concentration (MIC) of antimicrobial substances. Nature Protocols, 3(2), 163-175]. Specifically, peptides AB110-D, AB111-D, AB114-D and AB115-D were tested against P. aeruginosa PAO1, MRSA USA 300, Staphylococcus haemolyticus, Staphylococcus epidermidis, Klebsiella pneumoniae and Streptococcus salivarius and compared against the antibacterial activity of DJK-5 and AB103-D (Table 7). Overall, the antibacterial potency of all of the AB103-D derivatives was stronger than that seen for DJK-5, particularly in the case of the Gram-negative pathogens P. aeruginosa and K. pneumoniae. […]

MRSA USA 300 = test: MIC (broth microdilution) of peptides, MRSA; format: cell-based, methicillin resistant Staphylococcus aureus; conditions: MRSA USA300; mode of three biological replicates
Method: as §1, §2

[6] = tested on: Staphylococcus haemolyticus; test: MIC (broth microdilution) of peptides, S. haemolyticus; format: cell-based; conditions: mode of three biological replicates
Method: as §1, §2

[7] = tested on: Staphylococcus epidermidis; test: MIC (broth microdilution) of peptides, S. epidermidis; format: cell-based; conditions: mode of three biological replicates
Method: as §1, §2

Klebsiella pneumoniae = test: MIC (broth microdilution) of peptides, K. pneumoniae; format: cell-based; conditions: mode of three biological replicates
Method: as §1, §2

Streptococcus salivarius = test: MIC (broth microdilution) of peptides, S. salivarius; format: cell-based; conditions: mode of three biological replicates
Method: as §1, §2

[8] = Subdermal murine toxicity model
Method: FIGS. 14A-14B show murine subdermal toxicity assessment of AB103-D derived peptides. Clinical scores were recorded for each peptide treated mouse one hour after peptide administration (FIG. 14A). […] The presence of a cyst or lesion was recorded 16 hours after peptide administration and the size of the cyst was measured using calipers (FIG. 14B). Data shown are the mean of two independent replicates at a peptide dose of 4 mg/kg.
Subdermal murine toxicity model: A subdermal toxicity mouse model was used to evaluate whether peptides induced localized toxicity of treated cutaneous tissue. Mice were anesthetized with 2.5-3% isoflurane and their fur was removed by shaving followed by application of a chemical depilatory. […] Mice were visually assessed and received clinical scores for a battery of signs or symptoms (activity/behaviour change, appearance/grooming, hydration, pain, cyst formation), for which a score of zero was given to animals that appeared normal. Animals were weighed and clinical scores were totalled. Following an overnight (16 h) incubation, mice were scored and weighed then euthanized with CO2 followed by cervical dislocation. Mice were imaged and cysts (swollen, inflamed tissue) were measured using a caliper. Animal experiments were performed in accordance with the Canadian Council on Animal Care (CCAC) guidelines and were approved by the University of British Columbia Animal Care Committee. Female CD-1 mice were purchased from Charles River Laboratories, Inc. (Wilmington, MA). All mice were 8 weeks of age and weighed 25±5 g at the time of the experiment. Animals were group housed in cohorts of three to four littermates. Standard animal husbandry practices were employed.

[9] = tested on: P. aeruginosa PAO1 biofilms; conditions: P. aeruginosa PAO1 biofilms; >95% pure peptides; crystal violet; BM2 minimal media
MRSA USA300 = test: Biofilm inhibition (at least 80%), MRSA; format: cell-based, methicillin resistant Staphylococcus aureus; conditions: n = 4, 10% TSB + 0.1% glucose, 18-24 hours, crystal violet
[10] = tested on: Acinetobacter baumannii Ab5075; test: Biofilm inhibition (at least 80%), A. baumannii; format: cell-based; conditions: n = 4, BM2 minimal media, 18-24 hours, crystal violet
P. aeruginosa PAO1 [11] = test: Biofilm inhibition (at least 80%), P. aeruginosa; format: cell-based, Pseudomonas aeruginosa; conditions: n = 4, BM2 minimal media, 18-24 hours, crystal violet
E. coli O157:H7 = test: Biofilm inhibition (at least 80%), E. coli; format: cell-based, Escherichia coli; conditions: n = 3, BM2 minimal media, 18-24 hours, crystal violet
[12] = PAO1, read-out: MIC against planktonic cells in BM2 medium
[13] = PAO1, read-out: MIC against planktonic cells in MHB medium
[14] = read-out: MIC in 10% TSB, 0.1% glucose

Compound | FIC against biofilms [1] | Fold Decrease in concentration of AB103-D [1] | Fold Decrease in concentration of Antibiotic [1] | FIC [2] | Fold decrease AB103-D ([2]; MRSA) | Fold decrease Antibiotic ([2]; MRSA) | MIC [3, 12] | MIC [3, 13] | MIC [4, 14] | MIC ([4]; read-out: MIC in MHB medium) | further results
Benzalkonium-C1 | 0.51 | 2-fold | 128-fold | 0.5 | 4-fold | 4-fold |  |  |  |  | Antibiotic MBIC against biofilms ([1]; antibiotic alone, PAO1, BM2, at least 70% reduction): 16 µg/mL; Biofilm MBIC in 10% TSB, 0.1% glucose ([2]; antibiotic alone, MRSA, at least 70% reduction): 1; MIC against planktonic cells in BM2 medium ([3]; PAO1, BM2): 16 µg/mL; MIC against planktonic cells in MHB medium ([3]; PAO1, MHB): 16 µg/mL; MIC in 10% TSB, 0.1% glucose ([4]; MRSA planktonic, 10% TSB, 0.1% glucose): 1; MIC in MHB medium ([4]; MRSA planktonic, MHB): 0.25 µg/mL
[H]/N=C(\N/C(=N/[H])NCCCCCCNC(=N)NC(=N)Nc1ccc(Cl)cc1)Nc1ccc(Cl)cc1 [Chlorhexidine] | 0.63 | 8-fold | 2-fold | 0.56 | 2-fold | 16-fold | 4 µg/mL | 3.12 µg/mL | 1 µg/mL | 0.4 µg/mL | 
CC[C@@H](C)[C@@H](NC(=O)[C@@H](C)NC(=O)[C@@H](CCCNC(=N)N)NC(=O)[C@@H](CC(C)C)NC(=O)[C@@H](CCC(N)=O)NC(=O)[C@H](NC(=O)[C@@H](CCCNC(=N)N)NC(=O)[C@H](NC(=O)[C@H](NC(=O)[C@@H](CCCNC(=N)N)NC(=O)[C@H](NC(=O)[C@H](N)CCCNC(=N)N)C(C)C)C(C)C)[C@H](C)CC)C(C)C)C(N)=O [AB115-D, rvrvirvqlrai] (H-[dR][dV][dR][dV][dI][dR][dV][dQ][dL][dR][dA][dI]-NH2) |  |  |  |  |  |  |  |  |  |  | minimum inhibitory concentration of peptide that inhibited at least 90% of biofilm growth (MBIC90) (MRSA USA300 biofilms): 1 µM; MIC (P. aeruginosa PAO1 [5]): 2 µg/mL (≈ 1.35 µM); MIC (MRSA USA 300): 0.8 µg/mL (≈ 0.541 µM); MIC [6]: 0.8 µg/mL (≈ 0.541 µM); MIC [7]: 0.8 µg/mL (≈ 0.541 µM); MIC (Klebsiella pneumoniae): 0.8 µg/mL (≈ 0.541 µM); MIC (Streptococcus salivarius): 0.8 µg/mL (≈ 0.541 µM); Clinical score ([8]; 1 hour after subcutaneous administration, comparator DJK-5): < 2; Average cyst size compared to DJK-5 ([8]; 16 hours after administration, 4 mg/kg): smaller than those induced by DJK-5; minimum inhibitory concentration of peptide that inhibited at least 90% of biofilm growth (MBIC90) [9]: 8 µM
O=C(O)c1cn(C2CC2)c2cc(N3CCNCC3)c(F)cc2c1=O [CIP] |  |  |  |  |  |  |  |  |  |  | Peptide/Antibiotic Concentration where at least 80% of biofilm growth was inhibited (MRSA USA300): 8 µg/mL; Peptide/Antibiotic Concentration where at least 80% of biofilm growth was inhibited [10]: 32 µg/mL; Peptide/Antibiotic Concentration where at least 80% of biofilm growth was inhibited (P. aeruginosa PAO1 [11]): 0.125 µg/mL; Peptide/Antibiotic Concentration where at least 80% of biofilm growth was inhibited (E. coli O157:H7): 0.0625 µg/mL
C[C@H]1[C@H](NC(=O)/C(=N\OC(C)(C)C(=O)O)c2csc(N)n2)C(=O)N1S(=O)(=O)O [Aztreonam] | 0.56 | 2-fold | 16-fold | 0.75 | 4-fold | 2-fold | 8 µg/mL | 4 µg/mL | > 128 µg/mL | > 128 µg/mL | 
